We go through 2 molecules from US20200237773A1, “THERAPEUTIC COMBINATION OF A THIRD-GENERATION EGFR TYROSINE KINASE INHIBITOR AND A RAF INHIBITOR” (Novartis AG, priority 2017, published 2020).

Data set [1] relates to advanced non-small cell lung cancer (NSCLC) harboring T790M. As to conditions: cited from earlier work.
Data set [2] addresses T1, wild-type (WT) EGFR (Homo sapiens, UniProt P00533). As to conditions: cited from earlier work.
Data set [3] concerns EGFR mutant NSCLC cell lines HCC4006, HCC827, PC9, MGH707. In words: Long-term viability assay (confluence, 14 days). The data set is classed as cell-based. As to the method: FIG. 2A and FIG. 2B: Dose response of Compound B (“Cmpd B”) in EGFR mutant NSCLC lines in combination with Compound A (EGF816) (“Cmpd A”) (300 nM) (FIG. 2A: HCC4006 and HCC827 cell lines. FIG. 2B: PC9 and MGH707 cell lines). Cells were treated with fresh drug and imaged for confluence measurement twice per week for two weeks. Cell confluence was used as a surrogate for cell number. It is shown that a Raf-inhibitor in combination with EGF816 slows drug-tolerant cell outgrowth.
Combinations of Compound A and Compound B were further examined in long-term drug combination growth assays. The same EGFR mutant NSCLC cell lines as were used in Example 1 above were treated with EGF816 alone or EGF816 in combination with Compound B across a 5-dose range for 14 days as follows.
PC9 (6000/well), HCC827 (4000/well), HCC4006 (5000/well), and MGH707 (5000/well) cells were plated into 96-well plates and the following day treated with EGF816 (300 nM) +either DMSO or a range of doses of either Compound B (0.03, 0.1, 0.3, 1 and 3 uM) for two weeks. Drug was refreshed twice per week. Cell confluence was used as a surrogate for cell number and was measured by an incucyte zoom at t=0, 4, 7, 10 and 14 days treatment.

Data set [4] shares this test system. The data set can be described thus: Short-term viability assay (CellTiter-Glo, 5 days). The data set is classed as cell-based. The method, then: FIG. 1A and FIG. 1B: Dose response curves in EGFR mutant NSCLC cell lines (FIG. 1A: HCC4006 and HCC827 cell lines. FIG. 1B: PC9 and MGH707 cell lines). for Compound B in the presence of DMSO (curves at the top of Figures) or 300nM EGF816 (“Cmpd A”-curves at the bottom of Figures). % Activity is a measure of cell number as read out by cell-titer glo. 0 represents the CTG value at Day 0 and 100 represents the value of untreated growth at day 5.
The potential efficacy of adding a MAPK pathway inhibitor such as Compound B to a third-generation EGFR tyrosine kinase inhibitor such as EGF816 in EGFR mutant NSCLC was assessed as follows. A panel of EGFR mutant NSCLC cell lines was treated with a fixed dose (300 nM) of
EGF816 (“Compound A”) or DMSO in combination with Compound B across a 10-dose range for 5 days.
PC9, HCC827, HCC4006, NCI-H1975 and MGH707 are all EGFR mutant NSCLC cell lines sensitive to EGF816. PC9, HCC827, HCC4006 and NCI-H1975 were obtained from the cancer cell line encyclopedia (CCLE) database. MGH707 were obtained from Massachusetts General Hospital. All cell lines were maintained in RMPI media supplemented with 10% fetal bovine serum.
Compound A (EGF816) and Compound B were all re-suspended in DMSO at a concentration of 10 mM for a stock solution and further diluted for the experiments as indicated.
The following EGFR mutant (EGFR mt) NSCLC cell lines were plated at the following densities: HCC827 (exon 19 deletion, or ex19del for short) (500/well), HCC4006 (ex19del) (500/well), PC9 (ex19del)(500/well), and MGH707 parental (1000/well) into white 384-well plates (#3707, Corning, Oneonta, N.Y., USA) and stored in an incubator overnight at 37° C., 95% relative humidity, and 5% CO2. Compounds were serial diluted (1:3 dilution) in DMSO in an acoustic plate (#P-05525, Labcyte, San Jose, Calif., USA) using a Biomek liquid handler (Beckman, Indianapolis, Ind., USA). Compound A was dispensed into the first row of a Labcyte P-05525 source plate. The compound plates were then used to deliver combinations to assay plates using an acoustic dispenser (Echo-555, Labcyte, San Jose, Calif., USA). Each dispense was 50 nL which achieved a 1:1000 dilution (ie. 50 nL dispense of a 10 mM compound becomes 10 uM in 50 uL of cell solution). The combination treatment included a second dispense of 50 nL of Compound A to achieve a final concentration of 0.3 uM. Upon completion of dosing each assay plate was returned to an incubator (37° C., 95% relative humidity, and 5% CO2). 25 uL/well of CellTiter-Glo One Solution cell viability reagent (#G8462, Promega, Madison, Wis., USA) was added to an untreated plate of each cell line using a bulk dispenser (EL406, Biotek, Winooski, Vt., USA) and after 20 minutes of incubation at room temperature, the plates were read on a microplate reader (Envision, Perkin Elmer, Hopkington, Mass., USA). […] After 5 days of incubation, the assay plates are read using the same CellTiter-Glo assay reagent and read on the Envision microplate reader.
On the technique in general: Cellular ATP, detected with luciferase, serves as a proxy for viable cell number.

Data set [5] concerns EGFR activating and acquired resistance mutants (L858R, ex19del and T790M). As to conditions: cited from earlier work.
Data set [6] deals with EGFR mutant (L858R, ex19del and T790M) cancer models. The data set can be described thus: EGFR mutant cancer models (in vitro and in vivo), Compound A.
A further data set has as its system xenograft models. In words: Xenograft models, Compound A. The data set is classed as in vivo.
In data set [7] the target is T1, wild-type (WT) EGFR. The data set can be described thus: Inhibition of wild-type EGFR by Compound A. As to conditions: at clinically relevant efficacious concentrations.
For a further data set, the system named is EGFR-mutant NSCLC. The data set can be described thus: Previous study of EGF816 at 100 mg and 150 mg daily. The data set is classed as in vivo, human. As to conditions: 100 mg daily compared with 150 mg daily.
For the next data set, the target named is BRAF kinase (Homo sapiens, UniProt P15056). In words: BRAF kinase inhibition. The data set is classed as biochemical.
Chain of BRAF kinase (P15056 whole entry): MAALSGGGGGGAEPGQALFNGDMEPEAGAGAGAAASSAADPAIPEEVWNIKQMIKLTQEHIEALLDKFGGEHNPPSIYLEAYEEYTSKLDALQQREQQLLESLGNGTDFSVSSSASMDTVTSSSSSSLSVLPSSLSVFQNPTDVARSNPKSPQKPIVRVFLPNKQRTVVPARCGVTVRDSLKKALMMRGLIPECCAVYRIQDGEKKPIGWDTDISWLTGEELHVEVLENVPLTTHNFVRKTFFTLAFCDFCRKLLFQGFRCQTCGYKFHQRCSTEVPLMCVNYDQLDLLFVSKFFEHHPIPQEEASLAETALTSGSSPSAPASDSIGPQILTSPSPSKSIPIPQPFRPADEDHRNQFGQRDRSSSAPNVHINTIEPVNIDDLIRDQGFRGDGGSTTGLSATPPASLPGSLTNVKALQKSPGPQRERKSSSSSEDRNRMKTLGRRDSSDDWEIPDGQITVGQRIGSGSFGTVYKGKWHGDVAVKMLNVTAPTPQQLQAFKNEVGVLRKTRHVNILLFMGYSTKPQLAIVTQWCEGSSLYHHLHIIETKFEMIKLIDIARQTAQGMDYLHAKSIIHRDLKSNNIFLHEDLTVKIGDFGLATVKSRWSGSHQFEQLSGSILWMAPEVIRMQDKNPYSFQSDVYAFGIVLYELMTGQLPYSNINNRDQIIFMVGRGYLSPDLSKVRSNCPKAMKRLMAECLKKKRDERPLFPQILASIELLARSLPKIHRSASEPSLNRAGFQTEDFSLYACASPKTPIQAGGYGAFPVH
Data set [8] is described as follows: Anti-proliferative activity in cancer cell lines with MAPK-activating mutations. The data set is classed as cell-based. As to conditions: Homo sapiens; range over A-375, A-375 with BRAFi/MEKi resistance alleles, MEL-JUSO, IPC-298, Calu-6; read-out: IC50, inhibition of proliferation.
Data set [9] concerns cell lines that have wild-type BRAF and RAS. The data set can be described thus: Anti-proliferative activity in wild-type BRAF and RAS cell lines. The data set is classed as cell-based. As to conditions: Homo sapiens, read-out: IC50, inhibition of proliferation.
In another data set the test system is 456 kinases. In words: Kinase binding selectivity panel. As to conditions: out of 456 kinases tested.
In a further data set the test system is CYP3A4/5. In words: CYP3A4/5 inhibition. The data set is classed as in vitro ADME.
Data set [10] deals with Calu-6 (KRAS Q61K), NCI-H358 (KRAS G12C), Hey-A8 (KRAS G12D, BRAF G464E), SK-MEL-30 xenografts. The data set can be described thus: In vivo tumor xenografts, Compound B.

Where only a bound is given, the exact number is not on record here.

T1 sequence (P00533 25-1210): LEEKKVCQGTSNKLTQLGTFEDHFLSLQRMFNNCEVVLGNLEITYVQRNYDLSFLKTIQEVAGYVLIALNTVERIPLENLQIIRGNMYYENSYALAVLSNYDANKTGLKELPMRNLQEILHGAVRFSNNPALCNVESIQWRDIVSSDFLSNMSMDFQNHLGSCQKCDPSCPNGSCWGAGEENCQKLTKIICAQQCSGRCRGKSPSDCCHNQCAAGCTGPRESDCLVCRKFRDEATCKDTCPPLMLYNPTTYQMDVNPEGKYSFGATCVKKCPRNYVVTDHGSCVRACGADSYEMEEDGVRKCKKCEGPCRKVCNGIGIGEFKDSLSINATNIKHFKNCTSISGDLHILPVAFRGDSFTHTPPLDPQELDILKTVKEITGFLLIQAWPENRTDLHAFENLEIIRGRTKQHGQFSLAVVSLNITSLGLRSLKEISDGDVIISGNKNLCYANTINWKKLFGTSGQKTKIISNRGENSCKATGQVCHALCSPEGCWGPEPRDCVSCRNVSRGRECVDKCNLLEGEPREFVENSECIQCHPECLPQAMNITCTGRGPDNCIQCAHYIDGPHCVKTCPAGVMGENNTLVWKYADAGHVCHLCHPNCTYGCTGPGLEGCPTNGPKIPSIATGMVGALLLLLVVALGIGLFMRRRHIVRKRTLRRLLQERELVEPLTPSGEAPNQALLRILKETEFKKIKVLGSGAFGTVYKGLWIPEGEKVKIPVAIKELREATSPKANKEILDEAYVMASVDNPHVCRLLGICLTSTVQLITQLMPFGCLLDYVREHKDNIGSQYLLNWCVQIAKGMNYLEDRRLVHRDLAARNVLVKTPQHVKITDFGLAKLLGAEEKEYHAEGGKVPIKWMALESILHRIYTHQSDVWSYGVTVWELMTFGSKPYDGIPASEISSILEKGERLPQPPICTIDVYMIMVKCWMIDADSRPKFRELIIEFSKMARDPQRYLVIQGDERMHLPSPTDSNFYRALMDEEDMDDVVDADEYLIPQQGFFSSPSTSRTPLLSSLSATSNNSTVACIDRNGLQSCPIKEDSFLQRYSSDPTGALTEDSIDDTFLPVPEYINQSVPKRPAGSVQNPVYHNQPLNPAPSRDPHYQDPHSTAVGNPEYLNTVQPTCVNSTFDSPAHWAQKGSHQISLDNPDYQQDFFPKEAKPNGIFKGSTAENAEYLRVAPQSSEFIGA

On to `Cc1cc(C(=O)Nc2nc3cccc(Cl)c3n2[C@@H]2CCCCN(C(=O)/C=C/CN(C)C)C2)ccn1` [Compound A, (R,E)-N-(7-chloro-1-(1-(4-(dimethylamino)but-2-enoyl)azepan-3-yl)-1H-benzo[d]imidazol-2-yl)-2-methylisonicotinamide], for which, in data set [1], the “antitumor activity in patients” value was “durable antitumor activity”. For the same molecule, the “effect on wild-type EGFR” value at wild-type (WT) EGFR [2] is on record as “sparing”. In data set [3] (300 nM EGF816 alone, PC9), the “sensitivity to single agent EGF816” value was “more exquisitely sensitive”. Besides, in data set [4] (EGF816 alone 300 nM, 5 days, all cell lines), the “cell growth (% Activity, cell-titer glo)” value was “robust growth suppression”. Also, the “inhibition of EGFR mutants” value in [5] is listed as “selectively inhibits”. Besides, the “efficacy in EGFR mutant cancer models” value in data set [6] is recorded as “significant efficacy”. Besides, in the data set with xenograft models (at efficacious doses), the “tolerability / body weight” value is given as “well tolerated with no body weight loss”. The anti-tumor efficacy result with xenograft models (several xenograft models) is listed as “Dose-dependent anti-tumor efficacy”. Also, the “WT EGFR inhibition” value on wild-type (WT) EGFR [7] is given as “no indication of WT EGFR inhibition”. In the data set with EGFR-mutant NSCLC, the overall response rates entry is reported as “similar”; the “rates of rash and diarrhoea” value was “lower rates of rash and diarrhoea”.
Turning to `Cc1ccc(NC(=O)c2ccnc(C(F)(F)F)c2)cc1-c1cc(OCCO)nc(N2CCOCC2)c1` [Compound B, N-(3-(2-(2-hydroxyethoxy)-6-morpholinopyridin-4-yl)-4-methylphenyl)-2-(trifluoromethyl)isonicotinamide], the IC50 was 0.73 nM against BRAF kinase, 200 to 1200 nM in [8] and more than 20000 nM in data set [9]. The “residual outgrowth of EGFR mutant persister cells (cell confluence)” value in data set [3] (Compound B 0.03-3 uM with 300 nM EGF816, 14 days) is “markedly suppressed”. Moreover, the “response to the combination (cell confluence)” value in data set [3] (Compound B with 300 nM EGF816, 14 days, MGH707) is “most refractory”. For the same molecule, the “cell number (cell confluence)” value in [3] (Compound B with 300 nM EGF816, 14 days, PC9) is listed as “more pronounced drop in cell number”. In addition, the “number of other kinases whose binding is inhibited to a similar degree” value in the data set on 456 kinases is given as 2. Also, the “cell growth (% Activity, cell-titer glo)” value in data set [4] (Compound B added to 300 nM EGF816, 5 days, HCC4006, HCC827 and PC9) was “enhanced suppression of cell growth”; in data set [4] (Compound B added to 300 nM EGF816, 5 days, MGH707) it was “less effective”; in [4] (Compound B single agent (DMSO), 5 days, all cell lines), “suppressed”. In addition, in data set [4] (with 300 nM EGF816 compared to single agent, HCC4006, HCC827 and PC9), the “sensitization to Compound B by EGF816” value is listed as “active at lower doses”. Also, the CYP3A4/5 inhibition entry in the data set on CYP3A4/5 is “inhibitor of CYP3A4/5”. Further, the tumor response result in [10] (KRAS-mutant Calu-6, NCI-H358, Hey-A8 and NRAS-mutant SK-MEL-30 xenografts) is “tumor regression”. In data set [10] (in all cases), the “dose dependence of anti-tumor effects” value is “dose-dependent”. Also, the “tolerability / body weight” value in data set [10] (in all cases) is listed as “well tolerated with minimal body weight loss”.
